# Results from patent publication US12280082B2, “Formulation for inhibiting virus replication” (priority 2020, dated 2025).
# Like-named read-outs stand apart in the source and are kept apart here.
# Assays:
# VeroE6 cells = experiment: In vitro cytotoxicity (Hoechst 33342 / Sytox orange imaging); assay type: cell-based
# Protocol: The cytotoxicity assay was done in a 96-well plate format in 3 wells for each sample. 1×10e4 VeroE6 cells were plated per well and incubated at 37° C. overnight for the monolayer formation. Next day, cells were incubated with 1 μl (5.5 mg/ml solution in 200 μl) A. paniculate at the concentration with final DMSO conc. being 0.5%. The control cells were incubated with 0.5% DMSO only. The cells without test substance was the control for water soluble compounds. 24 and 48 hours later, cells were stained with Hoechst 33342 and Sytox orange dye. Images were taken at 10×, 16 images per well, which covers 90% of well area using ImageXpress Microconfocal (Molecular Devices). Hoechst 33342 nucleic acid stain is a popular cell-permeant nuclear counterstain that emits blue fluorescence when bound to dsDNA. It stains all the live and dead cells. Sytox orange dye stains nucleic acids in cells with compromised membranes. This stain is an indicator of cell death. First, the software will count total number of cells in the Hoechst image. In the Sytox image, it will count, among Hoechst positive cells, how many cells are positive for sytox.
# SARS-COV2 = experiment: microbe, parasite or virus in culture; assay type: cell-based; conditions: Severe acute respiratory syndrome coronavirus 2, Vero C1008, 48 h
smiles,measurement,setting,value
CCC(CC)COC(=O)[C@H](C)N[P@](=O)(OC[C@H]1O[C@@](C#N)(c2ccc3c(N)ncnn23)[C@H](O)[C@@H]1O)Oc1ccccc1 [Remdesivir],percentage of cell viability,VeroE6 cells; 24th hour of treatment,99.23%
same,percentage of cell viability,VeroE6 cells; 48th hour of treatment,94.37%
same,IC50,SARS-COV2; read-out: IC50 for E gene,150 nM
same,IC50,SARS-COV2; read-out: IC50 for N gene,110 nM
